“And” between values parts separate entries of the source, which are not always exact repeats. Equal values may be shown once. Read-outs that look alike come from different tables or passages of the source.

Data set [1] deals with Plasmodium falciparum NF54. In words: Parasite lactate dehydrogenase (pLDH) assay over 72 h, CQ-sensitive strain. In kind it is cell-based. As to the method: (§1) The assay was performed in quadruplicate. The data were analyzed by nonlinear regression analysis using the GraphPad PRISM version 5.00 program to determine the IC50 of each compound.
In data set [2] the test system is Plasmodium falciparum DD2. In words: Parasite lactate dehydrogenase (pLDH) assay over 72 h, CQ-resistant strain. In kind it is cell-based. The conditions noted are these: for Resistance index: IC50 (resistant strain)/IC50 (sensitive strain), DD2/NF54; for IC50: Plasmodium falciparum, CQ-resistant DD2, pLDH 72 h, n = 3, read-out: Plasmodium falciparum IC50 DD2. As to the method: as §1

Data set [3] in a line: In vivo PK, iv and oral, whole blood. Further details: species or system C57BL/6 mice. To be noted: for Vd / clearance / half-life / Cmax / Tmax: C57BL/6, mouse; for Vd / clearance / half-life / AUC0-∞ / Oral Cmax relative to the IC50 value / BA: mice; for Cmax / Tmax: po, 5 mg/kg; for BA: oral bioavailability. Here is the method: • i. Animals. […] Food and water were available ad libitum. Mice were acclimatised to the experimental environment for 4-5 days prior to initiating the experiments. • ii. Oral drug administration. AD01 and PhX6 were prepared in 100% Millipore […] prepared in an aqueous suspension of 0.5% HPMC (w/v) containing 0.2% Tween 80 (v/v). The weighed compounds were sonicated and vortexed to ensure all solutions were homogenous. […] The total volume per administration was 200 μL. Blood samples were collected post-dose in lithium heparin microvials via tail bleeding at predetermined intervals at 0.5, 1, 3, 5, 8, 10 and 24 h. Samples were gently vortexed and stored at -80°C until analysis. • iii. Intravenous administration. AD01 and PhX6 were prepared in 100% Millipore […] prepared in an organic vehicle consisting of 10% N,N-dimethylacetamide, 30% polyethylene glycol 400 (PEG), 50% polypropylene glycol (PPG) and 10% ethanol (1:3:5:1, v/v) for intravenous (iv) dosing at 10 mg/kg. The total volume of administration was 80 μL. Blood samples were collected post-dose in lithium heparin microvials via tail bleeding at predetermined intervals at 0.16, 0.5, 1, 3, 5, 8, 10 and 24 h. Samples were gently vortexed and stored at -80°C until analysis. • iv. Sample processing and analysis. […] The mixture was vortexed vigorously for 1 min, and 5 μL of the supernatant were injected onto the analytical column following centrifugation (5590 g for 5 min). A Shimadzu HPLC and reverse phase Gemini NX-C18 column coupled to an AB Sciex 3200 Q TRAP MS was operated at unit resolution in the multiple reaction monitoring (MRM) mode as described above. […] Data analysis. Drug concentration versus time plots for each compound were used to determine maximal drug concentration C max, time T max to reach C max, elimination half-life t 1/2 and the area under the concentration-time curve from time zero to infinity, AUC0-inf. From these values the PK parameters clearance CL, volume of distribution Vd and oral bioavailability BA were determined using the non-compartmental analysis Microsoft Excel Add-In PKSolver ([Zhang et al., 2010]).

Data set [4] is described as follows: Plasma stability in pooled human plasma. To be noted: for half-life: 37°C. Type of data set: in vitro ADME. As to the method: . […] The aqueous mobile phase was water with 0.1% formic acid and the organic mobile phase was acetonitrile with 0.1% formic acid. The gradient method has a flow rate of 0.8 mL/min, with a total run time of 2.5 min starting at 5% organic and increasing to 95% at 1.4 min, holding for 40 s before returning to 5% to re-equilibrate the column. • ii. Lipophilicity. Stock solutions (10 mM) of compounds were diluted to 100 μM in 96-well deep-well plate containing 300 µL of 1-octanol and 300 µL of phosphate buffer at pH 7.4. The plate was agitated on an orbital shaker at 750 rpm for 2 h. The organic and buffer layers of each well were transferred separately to a new analysis plate. The samples were analysed with the HPLC diode array detection as described for kinetic solubility. Samples from both layers were analysed to determine LogD7.4 values. • iii. Passive permeability. A parallel artificial membrane permeation assay (PAMPA) was used to assess the passive permeability of compounds with a 96-well MultiScreen filter plate ([…] pore size, Millipore). The filter plate was precoated with 5% hexadecane in hexane. Stock solutions of compounds were diluted to 1 mM in a donor buffer (pH 6.5). Lucifer yellow was added to the apical wells of the precoated MultiScreen plate containing compound donor solution. The donor buffer solutions were spiked with each test compound (1 mM). The acceptor-buffer solution was prepared by adding 10 μL DMSO to 990 μL acceptor buffer (pH 7.4) and 250 μL were added to the basolateral (acceptor) wells. The donor plate was carefully inserted into the acceptor plate and incubated at room temperature for 4 h. After the incubation period, 50 μL of samples from the acceptor plate were transferred to a round bottom 96-well plate, together with 30 μL of donor buffer for matrix matching. Theoretical equilibrium samples for each test compound were prepared by adding 150 μL of donor solutions to 250 μL acceptor solutions and left at room temperature. These theoretical equilibrium samples represent complete transfer of the compound into the donor well. For the theoretical equilibrium samples, 80 μL were added to the analysis plate. Lastly, 160 μL of the internal standard carbamazepine (0.1 μM) was added to all acceptor and equilibrium samples. A portion of the sample containing Lucifer yellow was analyzed on a BioRad iMarkTM Microplate Absorbance Reader (BioRad, Hercules, CA, United States; […]. Samples were analysed using reverse phase Gemini NX-C18 column (5 μm, 2.1 mm × 50 mm) with a Shimadzu HPLC coupled with an AB Sciex 3200 Q TRAP MS). […]. Plasma stability. Stock solutions of compounds in DMSO (10 mM) were used to spike pooled human plasma. […]
. Plasma protein binding was determined in pooled human plasma using an ultracentrifugation method. […]

Data set [5] in a line: Plasma protein binding, ultracentrifugation. The conditions noted are these: pooled human plasma. Type of data set: in vitro ADME.
Procedure: Plasma protein binding. Plasma protein binding was determined in pooled human plasma using an ultracentrifugation method. Stock solutions of test compounds (10 mM) were diluted in phosphate buffer and spiked into plasma in deep well 96-well plates (10 µM). An aliquot of each compound was immediately precipitated with ice cold acetonitrile containing the internal standard carbamazepine (0.1 μM). These served as total concentration samples. After incubation in a water bath at 37°C for 1 h, the samples were transferred to ultracentrifuge tubes in duplicate and centrifuged for 4 h at 37°C and 30,000 g (Optima L-80XP, Beckman). Following centrifugation, the supernatant was transferred to the plate containing the total concentration samples and precipitated with ice cold acetonitrile containing the internal standard. Analyte concentrations of all compounds were determined via LC-MS/MS (reverse phase Gemini NX-C18 column and Shimadzu HPLC coupled with an AB Sciex 3200 Q TRAP MS) as described above. • vi.
Where [6] appears, read: CQ-sensitive NF54, pLDH 72 h, n = 3, read-out: Plasmodium falciparum IC50 NF54.
Setting [7] is: P. falciparum NF54, read-out: NF54 IC50 (dotted line in concentration-time figures).
[8] abbreviates: 10 mg/kg, intravenous, whole blood.
[9] abbreviates: whole blood, iv, 10 mg/kg, intravenous, whole blood, read-out: t1/2 (converted).
Where [10] appears, read: oral gavage: AD01 4.6, PhX6 4.5, DpNEt 5 mg/kg.

As to `CCN(CC)c1ccc2nc3ccc(=[N+](CC)CC)cc-3sc2c1` [AD01], the IC50 in data set [1] (setting [6]) was found to be 23.1 ± 2.5 nM. Further, the IC50 in data set [1] (setting [7]) was 23 nM. In addition, in data set [2], the Resistance index is listed as 0.5 and the IC50 worked out at 11.9 ± 2.8 nM. Further, in data set [3] (setting [8]), the Vd is 16.2 ± 1.73 L/kg and the clearance turned out to be 74.4 ± 6.68 mL/min/kg. The half-life in data set [3] (setting [9]) is 2.51 ± 0.07 h. In addition, in data set [3] (whole blood), the concentration peaked (Cmax) at 250 ± 50 nM and the Tmax (usually the time from dosing to the highest level) worked out at 0.88 ± 0.13 h. Besides, in data set [3] (intravenous, whole blood), the “AUC0-∞” value amounted to 186 ± 15 µmol·min/L. Moreover, in data set [3], the “Oral Cmax relative to the IC50 value” is recorded as roughly 10 fold; the BA is 15% and 15 ± 4%. Moreover, the “AUC0-∞” value in data set [3] (setting [10]) was 101 ± 19 µmol·min/L. This compound also displayed a half-life in data set [4] of 1.42 h. For the same compound, the “Parent remaining in plasma after 3 h” value in data set [4] (3 h) came out at 21%.
`CCN(CC)c1ccc2nc3c4ccccc4/c(=N\c4ccccn4)cc-3oc2c1` [PhX6]: the IC50 in data set [1] (setting [6]) turned out to be 41.8 ± 0.04 nM; in data set [1] (setting [7]), 41 nM; in data set [2], 16.2 ± 2.4 nM. The fraction unbound (usually free concentration divided by total concentration) at 1 h, 10 µM in data set [5] amounted to 0.1. In addition, the Resistance index in data set [2] is on record as 0.4. In data set [3] (setting [8]), this compound displayed a Vd of 14.9 ± 2.09 L/kg. For the same compound, the clearance in data set [3] (setting [8]) is 21.5 ± 1.76 mL/min/kg. The half-life was 7.96 ± 0.73 h in data set [3] (setting [9]); 0.433 h in data set [3] (whole blood, two-compartment behaviour, read-out: Distribution half-life); greater than 2.5 h in data set [4]. Besides, in data set [3] (whole blood), the Cmax (as a rule, the highest concentration seen after dosing) amounted to 3450 ± 680 nM. Moreover, in data set [3] (whole blood), the Tmax worked out at 0.8 ± 0.12 h. Further, the “AUC0-∞” value is 540 ± 44 µmol·min/L in data set [3] (intravenous, whole blood) and 1,150 ± 216 min∙µmol/L in data set [3] (setting [10]). In addition, the “Oral Cmax relative to the IC50 value” in data set [3] is roughly 100 fold. Also, in data set [3], the BA is 60% and 60 ± 12%.

The record behind these values is publication PMC10800708, “Efficacies and ADME properties of redox active methylene blue and phenoxazine analogues for use in new antimalarial triple drug combinations with amino-artemisinins” (Frontiers in Pharmacology, 2024).
